{"source": "patent US20130184272A1", "about": "“DIABETES THERAPEUTIC AGENT” (TAKEDA PHARMACEUTICAL COMPANY LIMITED, priority 2010, published 2013)", "test_system": "Male C57BL/6J mice on a high-fat diet", "experiment": "Antiobesity, dyslipidemia and diabetes improving effect in mouse fed with high-fat diet", "type": "in vivo", "parameters": "plasma leptin (mg/dL): unit not given here", "details": "for epididymal fat mass / gastrocnemius muscle weight (g/100 g body weight) / hepatocyte weight / mesenteric fat mass: Day 38", "protocol": "Male C57BL/6J mice (CLEA Japan, Inc.) were bred from 5-week-old on a high-fat diet (D12451, research diet) while allowing free ingestion of both feed and water to prepare obesity mice. The mice were bred for acclimation for 2 weeks from 21-week-old. The body weight and plasma markers were measured when 23-week-old, the mice were divided into 6 groups (6 per group) such that the values thereof were uniform, and Reference Example 1 (0.01-0.1 mg/kg) or Reference Example 7 (1-3 mg/kg) was orally administered for 5 weeks. After 14 and 28 days, plasma levels of total cholesterol, neutral lipid, glucose, insulin, leptin, adiponectin and glycated hemoglobin were measured. On the last day, the mice were autopsied, and weights of mesenteric fat, epididymal fat, liver and gastrocnemius muscle were measured. The data of Table 18 show mean±standard deviation at n=5-6 (n is the number of samples).", "data": [{"smiles": "Cn1ncc2c1-c1c(Oc3cccnc3)sc(C(N)=O)c1CC2", "note": "[Ref. Ex. 7, 1-methyl-8-(pyridin-3-yloxy)-4,5-dihydro-1H-thieno[3,4-g]indazole-6-carboxamide]", "values": [{"measurement": "average amount of ingestion", "setting": "1 mg/kg oral", "value": "3.6 ± 0.2", "unit": "g/day"}, {"measurement": "body weight (g) change", "setting": "1 mg/kg oral", "value": "4.0 ± 1.5", "unit": "g"}, {"measurement": "body weight", "setting": "1 mg/kg oral, Day 0", "value": "41.2 ± 1.8", "unit": "g"}, {"measurement": "glycated hemoglobin (%)", "setting": "1 mg/kg oral, Day 0", "value": "4.4 ± 0.1", "unit": "%"}, {"measurement": "plasma adiponectin (μg/dL))", "setting": "1 mg/kg oral, Day 0", "value": "18.3 ± 2.8", "unit": "µg/dL"}, {"measurement": "plasma glucose", "setting": "1 mg/kg oral, Day 0", "value": "168.4 ± 29.1", "unit": "mg/dL"}, {"measurement": "plasma insulin", "setting": "1 mg/kg oral, Day 0", "value": "5.3 ± 3.5", "unit": "ng/mL"}, {"measurement": "plasma leptin (mg/dL)", "setting": "1 mg/kg oral, Day 0", "value": "61.4 ± 18.1"}, {"measurement": "plasma neutral fats", "setting": "1 mg/kg oral, Day 0", "value": "69.8 ± 35.0", "unit": "mg/dL"}, {"measurement": "plasma total cholesterol", "setting": "1 mg/kg oral, Day 0", "value": "227.2 ± 21.2", "unit": "mg/dL"}, {"measurement": "glycated hemoglobin (%)", "setting": "1 mg/kg oral, Day 14", "value": "4.2 ± 0.2", "unit": "%"}, {"measurement": "plasma adiponectin (μg/dL))", "setting": "1 mg/kg oral, Day 14", "value": "14.9 ± 3.4", "unit": "µg/dL"}, {"measurement": "plasma glucose", "setting": "1 mg/kg oral, Day 14", "value": "157.5 ± 19.4", "unit": "mg/dL"}, {"measurement": "plasma insulin", "setting": "1 mg/kg oral, Day 14", "value": "7.8 ± 3.3", "unit": "ng/mL"}, {"measurement": "plasma leptin (mg/dL)", "setting": "1 mg/kg oral, Day 14", "value": "86.9 ± 12.0"}, {"measurement": "plasma neutral fats", "setting": "1 mg/kg oral, Day 14", "value": "68.8 ± 16.0", "unit": "mg/dL"}, {"measurement": "plasma total cholesterol", "setting": "1 mg/kg oral, Day 14", "value": "213.8 ± 13.0", "unit": "mg/dL"}, {"measurement": "glycated hemoglobin (%)", "setting": "1 mg/kg oral, Day 28", "value": "4.0 ± 0.1", "unit": "%"}, {"measurement": "plasma adiponectin (μg/dL))", "setting": "1 mg/kg oral, Day 28", "value": "12.2 ± 2.3", "unit": "µg/dL"}, {"measurement": "plasma glucose", "setting": "1 mg/kg oral, Day 28", "value": "149.7 ± 16.9", "unit": "mg/dL"}, {"measurement": "plasma insulin", "setting": "1 mg/kg oral, Day 28", "value": "12.3 ± 4.9", "unit": "ng/mL"}, {"measurement": "plasma leptin (mg/dL)", "setting": "1 mg/kg oral, Day 28", "value": "96.1 ± 10.2"}, {"measurement": "plasma neutral fats", "setting": "1 mg/kg oral, Day 28", "value": "62.1 ± 26.1", "unit": "mg/dL"}, {"measurement": "plasma total cholesterol", "setting": "1 mg/kg oral, Day 28", "value": "216.8 ± 20.7", "unit": "mg/dL"}, {"measurement": "body weight", "setting": "1 mg/kg oral, Day 37", "value": "45.6 ± 3.0", "unit": "g"}, {"measurement": "epididymal fat mass", "setting": "1 mg/kg oral", "value": "0.78 ± 0.11", "unit": "g"}, {"measurement": "gastrocnemius muscle weight (g/100 g body weight)", "setting": "1 mg/kg oral", "value": "0.360 ± 0.014", "unit": "g/100 g body weight"}, {"measurement": "hepatocyte weight", "setting": "1 mg/kg oral", "value": "1.85 ± 0.30", "unit": "g"}, {"measurement": "mesenteric fat mass", "setting": "1 mg/kg oral", "value": "0.95 ± 0.14", "unit": "g"}, {"measurement": "average amount of ingestion", "setting": "3 mg/kg oral", "value": "3.7 ± 0.2", "unit": "g/day"}, {"measurement": "body weight (g) change", "setting": "3 mg/kg oral", "value": "2.3 ± 2.3", "unit": "g"}, {"measurement": "body weight", "setting": "3 mg/kg oral, Day 0", "value": "41.1 ± 1.7", "unit": "g"}, {"measurement": "glycated hemoglobin (%)", "setting": "3 mg/kg oral, Day 0", "value": "4.6 ± 0.1", "unit": "%"}, {"measurement": "plasma adiponectin (μg/dL))", "setting": "3 mg/kg oral, Day 0", "value": "17.0 ± 2.9", "unit": "µg/dL"}, {"measurement": "plasma glucose", "setting": "3 mg/kg oral, Day 0", "value": "176.9 ± 30.1", "unit": "mg/dL"}, {"measurement": "plasma insulin", "setting": "3 mg/kg oral, Day 0", "value": "5.1 ± 2.3", "unit": "ng/mL"}, {"measurement": "plasma leptin (mg/dL)", "setting": "3 mg/kg oral, Day 0", "value": "62.3 ± 10.9"}, {"measurement": "plasma neutral fats", "setting": "3 mg/kg oral, Day 0", "value": "71.6 ± 28.8", "unit": "mg/dL"}, {"measurement": "plasma total cholesterol", "setting": "3 mg/kg oral, Day 0", "value": "231.9 ± 29.9", "unit": "mg/dL"}, {"measurement": "glycated hemoglobin (%)", "setting": "3 mg/kg oral, Day 14", "value": "4.0 ± 0.3", "unit": "%"}, {"measurement": "plasma adiponectin (μg/dL))", "setting": "3 mg/kg oral, Day 14", "value": "15.2 ± 3.0", "unit": "µg/dL"}, {"measurement": "plasma glucose", "setting": "3 mg/kg oral, Day 14", "value": "172.8 ± 32.3", "unit": "mg/dL"}, {"measurement": "plasma insulin", "setting": "3 mg/kg oral, Day 14", "value": "6.2 ± 3.0", "unit": "ng/mL"}, {"measurement": "plasma leptin (mg/dL)", "setting": "3 mg/kg oral, Day 14", "value": "73.5 ± 12.6"}, {"measurement": "plasma neutral fats", "setting": "3 mg/kg oral, Day 14", "value": "47.0 ± 9.2", "unit": "mg/dL"}, {"measurement": "plasma total cholesterol", "setting": "3 mg/kg oral, Day 14", "value": "192.8 ± 12.5", "unit": "mg/dL"}, {"measurement": "glycated hemoglobin (%)", "setting": "3 mg/kg oral, Day 28", "value": "4.0 ± 0.2", "unit": "%"}, {"measurement": "plasma adiponectin (μg/dL))", "setting": "3 mg/kg oral, Day 28", "value": "12.8 ± 0.8", "unit": "µg/dL"}, {"measurement": "plasma glucose", "setting": "3 mg/kg oral, Day 28", "value": "155.9 ± 12.7", "unit": "mg/dL"}, {"measurement": "plasma insulin", "setting": "3 mg/kg oral, Day 28", "value": "5.8 ± 1.4", "unit": "ng/mL"}, {"measurement": "plasma leptin (mg/dL)", "setting": "3 mg/kg oral, Day 28", "value": "77.3 ± 16.3"}, {"measurement": "plasma neutral fats", "setting": "3 mg/kg oral, Day 28", "value": "53.6 ± 35.6", "unit": "mg/dL"}, {"measurement": "plasma total cholesterol", "setting": "3 mg/kg oral, Day 28", "value": "194.1 ± 18.4", "unit": "mg/dL"}, {"measurement": "body weight", "setting": "3 mg/kg oral, Day 37", "value": "44.0 ± 2.4", "unit": "g"}, {"measurement": "epididymal fat mass", "setting": "3 mg/kg oral", "value": "0.77 ± 0.15", "unit": "g"}, {"measurement": "gastrocnemius muscle weight (g/100 g body weight)", "setting": "3 mg/kg oral", "value": "0.375 ± 0.020", "unit": "g/100 g body weight"}, {"measurement": "hepatocyte weight", "setting": "3 mg/kg oral", "value": "1.74 ± 0.30", "unit": "g"}, {"measurement": "mesenteric fat mass", "setting": "3 mg/kg oral", "value": "0.77 ± 0.24", "unit": "g"}, {"measurement": "body weight (in words)", "setting": "obese mouse model fed with a high-fat diet", "value": "clear body weight decreasing action"}]}]}
